{
  "source": "paper PMC11550998",
  "about": "“Novel 5-HT7 receptor antagonists modulate intestinal immune responses and reduce severity of colitis” (American Journal of Physiology - Gastrointestinal and Liver …, 2024)",
  "key": {"CYP2D6": {"target": "CYP2D6 (Homo sapiens, UniProt P10635)", "sequence (P10635 whole entry)": "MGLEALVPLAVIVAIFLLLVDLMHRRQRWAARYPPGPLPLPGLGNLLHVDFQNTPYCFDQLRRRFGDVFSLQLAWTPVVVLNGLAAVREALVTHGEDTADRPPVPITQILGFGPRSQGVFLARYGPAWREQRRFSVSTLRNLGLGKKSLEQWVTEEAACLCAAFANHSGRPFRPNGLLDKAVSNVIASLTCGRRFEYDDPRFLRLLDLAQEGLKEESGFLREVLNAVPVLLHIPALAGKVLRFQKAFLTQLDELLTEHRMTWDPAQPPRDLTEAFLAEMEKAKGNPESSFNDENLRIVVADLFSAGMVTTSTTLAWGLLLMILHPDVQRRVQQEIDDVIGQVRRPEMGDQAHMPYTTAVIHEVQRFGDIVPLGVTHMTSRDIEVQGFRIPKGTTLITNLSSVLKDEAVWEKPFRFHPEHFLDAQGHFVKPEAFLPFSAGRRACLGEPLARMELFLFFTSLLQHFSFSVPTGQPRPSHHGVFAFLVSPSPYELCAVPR", "experiment": "Cytochrome P450 inhibition assay, 2D6 (fluorescent substrate)", "assay_type": "in vitro ADME", "conditions": "expressed enzyme", "method": "(§1) Compounds were assessed for their ability to inhibit human cytochrome P450 3A4 using testosterone as a substrate and LC-MS/MS analysis, whereas the 2D6 and 2C9 assays used fluorescent substrates and EnVision plate reader analysis. Expressed enzymes were used to minimize nonspecific binding and membrane partitioning issues ([15])."}, "[1]": {"experiment": "Aqueous solubility (pH 7.4) assay, Millipore MultiScreen filter system", "assay_type": "physicochemical", "conditions": "read-out: Sol (aqueous solubility)", "method": "Compounds were assessed for their solubility at pH 7.4 using the commercially available Millipore MultiScreen Solubility filter system (Millipore, Billerica, MA). Analysis was performed by liquid chromatography-tandem mass spectrometry (LC-MS/MS)."}, "CYP2C9": {"target": "CYP2C9 (Homo sapiens, UniProt P11712)", "sequence (P11712 whole entry)": "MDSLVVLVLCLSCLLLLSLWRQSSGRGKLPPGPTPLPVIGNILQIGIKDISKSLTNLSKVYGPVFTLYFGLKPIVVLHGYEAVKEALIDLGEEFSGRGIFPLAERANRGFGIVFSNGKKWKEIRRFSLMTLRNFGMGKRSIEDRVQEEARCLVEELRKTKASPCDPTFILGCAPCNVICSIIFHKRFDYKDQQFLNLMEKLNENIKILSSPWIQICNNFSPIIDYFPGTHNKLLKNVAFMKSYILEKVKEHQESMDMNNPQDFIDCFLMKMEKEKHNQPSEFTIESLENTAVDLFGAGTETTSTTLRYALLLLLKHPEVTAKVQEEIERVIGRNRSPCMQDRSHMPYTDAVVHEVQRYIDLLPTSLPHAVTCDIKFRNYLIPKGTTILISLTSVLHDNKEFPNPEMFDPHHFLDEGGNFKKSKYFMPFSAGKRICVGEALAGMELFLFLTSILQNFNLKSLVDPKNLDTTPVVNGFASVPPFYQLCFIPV", "experiment": "Cytochrome P450 inhibition assay, 2C9 (fluorescent substrate)", "assay_type": "in vitro ADME", "conditions": "expressed enzyme", "method": "as §1"}, "[2]": {"target": "human cytochrome P450 3A4 (Homo sapiens, UniProt P08684)", "sequence (P08684 whole entry)": "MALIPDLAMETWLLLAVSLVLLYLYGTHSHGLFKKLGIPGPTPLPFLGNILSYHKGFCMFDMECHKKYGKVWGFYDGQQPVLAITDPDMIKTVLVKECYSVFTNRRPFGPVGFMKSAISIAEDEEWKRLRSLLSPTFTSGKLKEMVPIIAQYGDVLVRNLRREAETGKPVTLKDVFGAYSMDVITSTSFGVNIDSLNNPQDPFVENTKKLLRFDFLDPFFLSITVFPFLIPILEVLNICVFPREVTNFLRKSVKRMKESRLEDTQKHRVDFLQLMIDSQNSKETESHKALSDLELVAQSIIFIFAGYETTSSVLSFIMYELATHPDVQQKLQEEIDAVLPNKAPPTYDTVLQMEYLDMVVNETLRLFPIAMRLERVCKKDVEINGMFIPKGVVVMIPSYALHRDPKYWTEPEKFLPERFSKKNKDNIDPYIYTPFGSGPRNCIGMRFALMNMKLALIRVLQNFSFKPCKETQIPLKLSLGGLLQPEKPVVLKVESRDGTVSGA", "experiment": "Cytochrome P450 inhibition assay, 3A4 (testosterone substrate, LC-MS/MS)", "assay_type": "in vitro ADME", "conditions": "expressed enzyme, read-out: IC50 CYP3A4", "method": "as §1"}, "[3]": {"tested_on": "acute DSS-induced colitis", "experiment": "Acute DSS-induced colitis model", "assay_type": "in vivo, C57BL/6 mice", "source_text": "C57BL/6 (Taconic, Cambridge City, IN) for the DSS model of colitis, as well as C57BL/6 and Rag1^−/− mice (Jackson Laboratory, Bar Harbor, ME) for the T-cell transfer model, were kept in sterilized, filter-topped cages under specific pathogen-free conditions upon arrival and fed autoclaved food. Male mice aged 8–10 wk were used for all experiments. Mice were acclimatized for 7 days before the start of any experiments. All experiments were approved by the animal ethics committee of McMaster University and conducted under Canadian guidelines for animal research.\nFor induction of acute colitis, DSS (molecular mass 40 kDa; ICN; Biomedicals Incorporate, Solon, OH) was added to autoclaved drinking water at a final concentration of 4 or 5% wt/vol for 5 days. For the induction of chronic colitis, DSS was added to normal drinking water at a final concentration of 4% for 5 days, followed by 7 days of water. This cycle was repeated twice thereafter, with 2% DSS. Control mice received vehicle or normal drinking water.\nFor acute DSS-induced colitis, C576BL/6 mice were treated with MC-170073 (10 mg/kg of body wt) or vehicle (10% DMSO in normal saline) via intraperitoneal injection once daily for 6 days, starting 1 day before the beginning of DSS. In a separate experiment, C57BL/6 mice were orally administered with MC-230078 (10 mg/kg) or vehicle twice daily for 5 days, starting from the beginning of DSS. For chronic DSS-induced colitis, C57BL/6 mice were treated with MC-170073 (10 mg/kg ip) or vehicle once daily for 6 days, starting 1 day before the beginning of the third cycle. Last, for CD4^+CD45RB^high T cell-induced chronic colitis, reconstituted Rag1^−/− mice were orally administered MC-230078 (5 mg/kg or 10 mg/kg) or a vehicle twice daily for 10 days starting from week 6 post-reconstitution of T cells.\nDisease activity index (DAI) is a combined score of weight loss, stool consistency, and fecal bleeding and was blindly assessed using a previously published scoring system ([19]). This scoring system was defined as follows: weight loss: 0 = no loss; 1 = 1–5%; 2 = 5–10%; 3 = 10–20%; 4 = 20%+; stool, 0 = normal; 2 = loose stool; 4 = diarrhea; and bleeding: 0 = no blood; 2 = hemoccult positive (Hemoccult II; Beckman Coulter, Fullerton, CA); and 4 = gross blood (blood around anus). DAI was measured across all days of DSS treatment. Macroscopic damage scores were blindly scored using a previously published scoring system for DSS-induced colitis ([19]).\nColonic myeloperoxidase (MPO) levels were measured following a published protocol ([19]). Briefly, colonic tissue samples were homogenized in ice-cold 50 mmol·L^−1 potassium phosphate buffer containing 0.5% hexadecyl trimethyl ammonium bromide (pH = 6.0) (Sigma). Homogenates were centrifuged, the supernatant was removed, and an aliquot was then added to a solution containing potassium phosphate buffer, O-dianisidine, and hydrogen peroxide (Sigma-Aldrich). The absorbance was measured at 450 nm by a spectrophotometer (model EL808, BioTek). MPO level was expressed in units per milligram of tissue, where 1 U is defined as the quantity of enzyme able to convert 1 μmol hydrogen peroxide to water per minute at room temperature.\nSegments of the proximal colon were washed with PBS, fixed in 10% neutral-buffered formalin, washed with ethanol, and embedded in paraffin. Hematoxylin-eosin (H&E)-stained colonic tissue sections were scored using a previously published system ([19]): crypt architecture (normal = 0; severe crypt distortion with loss of entire crypts = 3), degree of inflammatory cell infiltration (normal = 0; dense inflammatory infiltrate = 3), muscle thickening (base of crypt sits on the muscularis mucosae = 0; marked muscle thickening present = 3), goblet cell depletion (absent = 0; present = 1), and crypt abscess (absent = 0; present = 1). A breakdown of scoring criteria can be seen in Supplemental Table S1. The histological damage score is the sum of each individual score. […]"}, "[4]": {"target": "T1, h5-HT7D expressed in U2OS cells (Homo sapiens, UniProt P34969)", "T1 construct": "host or cells: U2OS", "T1 sequence (P34969 whole entry)": "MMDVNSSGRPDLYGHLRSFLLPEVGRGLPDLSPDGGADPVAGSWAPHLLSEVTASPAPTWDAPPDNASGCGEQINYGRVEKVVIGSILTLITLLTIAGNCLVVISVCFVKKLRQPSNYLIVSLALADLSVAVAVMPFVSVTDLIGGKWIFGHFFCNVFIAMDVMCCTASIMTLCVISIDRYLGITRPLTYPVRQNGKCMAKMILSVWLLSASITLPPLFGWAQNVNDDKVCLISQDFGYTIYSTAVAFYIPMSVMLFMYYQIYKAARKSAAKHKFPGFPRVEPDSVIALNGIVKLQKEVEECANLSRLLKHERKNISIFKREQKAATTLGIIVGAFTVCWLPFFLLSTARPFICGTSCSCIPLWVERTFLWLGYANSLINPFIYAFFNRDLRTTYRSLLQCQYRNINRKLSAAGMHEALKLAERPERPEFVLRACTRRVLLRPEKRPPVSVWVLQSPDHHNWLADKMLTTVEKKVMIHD", "experiment": "5-HT7 functional assay (cAMP Hunter eXpress GPCR luminescence assay)", "assay_type": "cell-based", "conditions": "antagonist, cAMP production stimulated by 150 nM 5-HT (EC80), Cheng-Prusoff", "method": "The potencies of MC-170073, […], and MC-230079 as 5-HT7 antagonists were determined using the cAMP Hunter eXpress GPCR luminescence assay (DiscoveRx, 95-0163E3) and the manufacturer’s protocol. Cryopreserved U2OS cells expressing h5-HT7D were seeded into 96-well white-walled clear bottom tissue culture-treated plates (31,250 cells/well) and were allowed to recover for 16 h at 37°C in a humidified incubator with 5% CO2. The media was aspirated and replaced with 30-µL cell assay buffer (CAB). Cells were preincubated at 37°C for 15 min with 7.5 µL of 6× final concentration of 5 to 10 concentrations in triplicate of test compounds in CAB. Cells were then stimulated for 30 min at 37°C with 7.5 µL of 900 nM of the full agonist 5-HT in cell assay buffer (final concentration 150 nM; an EC80). cAMP levels/well were determined at room temperature by adding 15 µL of cAMP antibody and 60 µL of cAMP working detection solution, followed by the addition of 60 µL of solution A after 1 h incubation. Luminescence was read 16 h later with an EnVision multilabel plate reader. The IC50 of test compounds was calculated using GraphPad’s Prism 5 (GraphPad Software, La Jolla, CA) nonlinear curve-fitting program. The equilibrium dissociation constant for the competitive antagonists (KB) values was determined using the Cheng-Prusoff equation."}, "[5]": {"conditions": "pH 7.4, aqueous buffer, kinetic from dmso stock"}, "[6]": {"conditions": "4% DSS 5 days, 10 mg/kg ip once daily 6 days"}, "[7]": {"conditions": "4% DSS 5 days, 10 mg/kg ip once daily 6 days, vs vehicle-treated mice"}, "[8]": {"conditions": "5% DSS 5 days, 10 mg/kg orally twice daily 5 days"}, "[9]": {"conditions": "5% DSS, 10 mg/kg orally twice daily 5 days"}, "[10]": {"conditions": "5% DSS, 10 mg/kg orally twice daily, day 5 post-DSS vs vehicle"}},
  "note": "Like-named read-outs stand apart in the source and are kept apart here.",
  "data": [
    {"smiles": "CCC1(CC)CC(CCN2CCN(c3ccc(O)cc3)CC2)OC1=O", "note": "(stereo not drawn) [MC-170073]", "values": [
      {"measurement": "IC50", "setting": "CYP2D6", "value": "> 10", "unit": "µM"},
      {"measurement": "solubility", "setting": "[1]; [5]", "value": 200, "unit": "µM"},
      {"measurement": "solubility", "setting": "[1]", "value": 168, "unit": "µM"},
      {"measurement": "IC50", "setting": "CYP2C9", "value": "> 10", "unit": "µM"},
      {"measurement": "IC50", "setting": "[2]", "value": "> 10", "unit": "µM"},
      {"measurement": "colonic IL-1β level", "setting": "[3]; [6]", "value": "lower levels"},
      {"measurement": "colonic IL-6 level", "setting": "[3]; [6]", "value": "lower levels"},
      {"measurement": "colonic MPO level", "setting": "[3]; [6]", "value": "lower levels"},
      {"measurement": "colonic TNF-α level", "setting": "[3]; [6]", "value": "lower levels"},
      {"measurement": "DAI scores", "setting": "[3]; [7]", "value": "significantly lower"},
      {"measurement": "histological damage scores", "setting": "[3]; [7]", "value": "significantly less severe"},
      {"measurement": "macroscopic scores", "setting": "[3]; [7]", "value": "lower"},
      {"measurement": "Kb", "setting": "[4]", "value": 0.018, "unit": "µM"}
    ]},
    {"smiles": "CCC1(CC)C[C@@H](CCN2CCN(c3ccc(O)cc3)CC2)OC1=O", "note": "[MC-230078]", "values": [
      {"measurement": "IC50", "setting": "CYP2D6", "value": "> 10", "unit": "µM"},
      {"measurement": "solubility", "setting": "[1]; [5]", "value": 200, "unit": "µM"},
      {"measurement": "IC50", "setting": "CYP2C9", "value": "> 10", "unit": "µM"},
      {"measurement": "IC50", "setting": "[2]", "value": 9.46, "unit": "µM"},
      {"measurement": "DAI", "setting": "[3]; [8]", "value": "significantly lower"},
      {"measurement": "body weight change during DSS", "setting": "[3]; [8]", "value": "no significant difference"},
      {"measurement": "colonic IL-1β level", "setting": "[3]; [9]", "value": "significantly lower"},
      {"measurement": "colonic MPO level", "setting": "[3]; [9]", "value": "significantly lower"},
      {"measurement": "histological scores", "setting": "[3]; [10]", "value": "significantly lower"},
      {"measurement": "macroscopic scores", "setting": "[3]; [10]", "value": "significantly lower"},
      {"measurement": "Kb", "setting": "[4]", "value": 0.021, "unit": "µM"}
    ]}
  ]
}
